Format in all cases: biochemical
One experiment deals with thrombin. The experiment in a line: Measurement of the activity of thrombin with the compound as substrate (naphthol liberated, FVB colour, absorbance). The settings on record: for relative sensitivity, Thrombin: methods of Example 3 and Comparative Example 2, p-nitroanilide substrate = 1.0. Here is the method: To 1.7 ml of 50 mM phosphate buffer solution (pH 7.0) were added 0.1 ml of thrombin at various concentrations and 0.2 ml of N-benzoyl-L-phenylalanyl-L-valyl-L-arginine 1-naphthyl ester hydrochloride solution (1.5 mM), and the resulting mixture was subjected to incubation at 25° C. for 30 min. The mixture was cooled in iced water, and 0.1 ml of 1% FVB was added thereto. The resulting mixture was allowed to stand at 0° C. for 10 min, and 1 ml of glacial acetic acid was further added thereto. The color thus developed was measured as absorbance (505 nm) by means of a spectrophotometer, thereby determining the amount of the naphthol liberated by hydrolysis with the enzyme. As a control, the buffer solution same as above but free from thrombin was used. The amount of the naphthol liberated corresponded to the activity of the enzyme.
To 0.1 ml of thrombin were added 0.3 ml of Nα-tosyl-L-arginine methyl ester hydrochloride solution (10 micromoles/0.4 ml of 5% DMSO) and 0.6 ml of phosphate buffer solution (pH 7.4), and the resulting mixture was subjected to incubation at 37° C. for 30 min, after which 1.5 ml of a hydroxylamine solution (a mixture of equal amounts of 2 M NH2 OH hydrochloride and 3.5 M NaOH) was added thereto. The resulting mixture was allowed to stand at room temperature for 15 min. Thereto were added 1 ml of 18% trichloroacetic acid solution, 1 ml of 4 N hydrochloric acid, and 1 ml of 10% ferric chloride solution. The resulting mixture was thoroughly stirred and then centrifuged at 3,000 r.p.m. for 10 min. The color thus developed of the supernatant was measured as absorbance (530 l nm) by means of a spectrophotometer. The value obtained corresponds to the amount of the substrate remaining unhydrolyzed with thrombin, and therefore, and activity of the enzyme corresponds to the difference between the value obtained when no enzyme was used (control) and the value obtained after the enzyme reaction.
To 2.15 ml of […] tris HCl buffer solution (pH 8.0) were added 0.1 ml of thrombin at various concentrations and 0.25 ml of an N-benzoyl-L-phenylalanyl-L-valyl-L-arginine p-nitroanilide hydrochloride solution (1mM/H2 O), and the resulting mixture was subjected to incubation at 37° C. for 30 min. To the mixture was added 0.3 ml of glacial acetic acid, and the color developed was measured as absorbance (405 nm) by means of a spectrophotometer.

The next experiment relates to Kallikrein Plasma. Put plainly: Measurement of the activity of plasma kallikrein with the compound as substrate. As to conditions: methods of Example 3 and Comparative Example 2; p-nitroanilide substrate = 1.0.
Another experiment relates to Kallikrein Tissue. Put plainly: Measurement of the activity of tissue kallikrein with the compound as substrate. As to conditions: methods of Example 3 and Comparative Example 2; p-nitroanilide substrate = 1.0.
In another experiment the test system is Factor Xa. Put plainly: Measurement of the activity of Factor Xa with the compound as substrate. The settings on record: methods of Example 3 and Comparative Example 2; p-nitroanilide substrate = 1.0.
For a further experiment, the system named is Urokinase. Put plainly: Measurement of the activity of urokinase with the compound as substrate. As to conditions: methods of Example 3 and Comparative Example 2; p-nitroanilide substrate = 1.0.

Residues, ends and D or L forms follow the SMILES beside them. *: point of attachment. pNA = O=[N+]([O-])c1ccc(N*)cc1; Bz = O=C(c1ccccc1)*

Regarding `CC(C)[C@H](NC(=O)[C@H](Cc1ccccc1)NC(=O)c1ccccc1)C(=O)N[C@@H](CCCNC(=N)N)C(=O)Nc1ccc([N+](=O)[O-])cc1.Cl` [N-benzoyl-L-phenylalanyl-L-valyl-L-arginine p-nitroanilide hydrochloride, reference compound] (Bz-Phe-Val-Arg-pNA), the “relative sensitivity, Thrombin” value in the experiment with thrombin was determined as 1.0. In addition, in the experiment on Kallikrein Plasma, the “relative sensitivity, Kallikrein Plasma” value stood at 1.0. Also, the “relative sensitivity, Kallikrein Tissue” value in the experiment on Kallikrein Tissue is 1.0. Besides, the “relative sensitivity, Factor Xa” value with Factor Xa is listed as 1.0. For the same compound, the “relative sensitivity, Urokinase” value in the experiment on Urokinase is 1.0.

As for `CC(C)[C@H](NC(=O)[C@H](Cc1ccccc1)NC(=O)c1ccccc1)C(=O)N[C@@H](CCCNC(=N)N)C(=O)Oc1cccc2ccccc12.Cl` [N-benzoyl-L-phenylalanyl-L-valyl-L-arginine 1-naphthyl ester hydrochloride], the “relative sensitivity, Thrombin” value in the experiment on thrombin amounted to 5.0. In addition, the “sensitivity relative to that of Nα-tosyl-L-arginine methyl ester” value in the experiment on thrombin (thrombin activity measured with the compound as substrate) was “about 31 times”. For the same compound, the “detection sensitivity relative to Comparative Example 2” value in the experiment with thrombin (versus N-benzoyl-L-phenylalanyl-L-valyl-L-arginine p-nitroanilide hydrochloride as substrate, standard curves of the drawing) is reported as “about 5 times”. Moreover, the “detection sensitivity relative to Comparative Example 1” value in the experiment with thrombin (versus Nα-tosyl-L-arginine methyl ester hydrochloride as substrate (hydroxamate method), standard curves of the drawing) is reported as “about 30 times”. In addition, the “relative sensitivity, Kallikrein Plasma” value with Kallikrein Plasma was 12.5. The “relative sensitivity, Kallikrein Tissue” value in the experiment with Kallikrein Tissue is 30. In the experiment on Factor Xa, the “relative sensitivity, Factor Xa” value was 15. Moreover, in the experiment with Urokinase, the “relative sensitivity, Urokinase” value was found to be 40.

Source of the values: patent publication US4308201A, “Phenylalanylvalylarginine derivative, process for producing same and method for measuring activity of enzymes using same” (Torii & Co., Ltd., priority 1978, dated 1981).
